pKd: −log10 of the molar value. Entries after “also recorded” stand apart in the source; their conditions may differ. Where two headings read alike, the source gives them in different places.
Assays:
gp120451 = test: Dot blot of phage-displayed peptides incubated with gp120451, probed with defining mAbs or CD4 (FIG. 1, 4); type: binding, HIV-1
Protocol: Phages expressing the m1 peptide as protein fusions (m1) or not (fth1, as a negative control) were applied to nitrocellulose membranes as dots and incubated with or without gp120451. After washing, the filters were probed with either anti-gp120 mAb or the CG10 mAb as indicated and signals were developed by enhanced chemiluminescence (ECL)
Of the gp120-binding peptides isolated, one was particularly unique. […] As noted above, binding of CG10 to its epitope is absolutely dependent on the CD4i conformation of gp120. It was concluded that m1 binds to the CD4 binding site and acts as a CD4 mimetic, triggering a structural rearrangement locking gp120 into the CD4i conformation.
Because the CD4i conformation of gp120 can disrupt the integrity/accessibility of important neutralizing epitopes of gp120 [e.g. b12 (Xiang et al., 2002, supra)] the binding of a panel of neutralizing antibodies was tested.

gp120BaL = test: Dot blot of m2 phages with gp120BaL, probed with panel of defining mAbs (FIG. 8); type: binding, HIV-1
Excerpt: Each dot was applied in duplicate.
A second measure of “improved peptide” characteristics is the ability to bind gp120s derived from other HIV-1 isolates. (m1 was developed using gp120451.) The preference was to identify a peptide that has the same type of effect on the BaL isolate of HIV-1 as does the m1-peptide for the 451 isolate.

gp120 = details: for pKd: quantitative ELISA, FIG. 7
gp120JR-FL = test: Binding of peptides to gp120 of the JR-FL isolate; parameters: species or system HIV-1
CD4 = CD4 (Homo sapiens, UniProt P01730); test: Capture ELISA of m1 phages with CD4 alone (FIG. 2E); type: binding; details: CD4 without gp120
Excerpt: Anti-M13 (phage) antibody was adsorbed to microplate wells to capture either m1 peptide-expressing phages (A, B, D, E) or fth1-negative control phage (C).

| Sequence | binding of CD4BS mAbs b12, b6 and m14 to peptide/gp120 complex (gp120451) | induction of the CG10 epitope (CG10 mAb binding to peptide/gp120451 complex) (gp120451; phage-displayed peptide) | CD4 binding by peptide-captured gp120BaL (gp120BaL) | induction of CD4i epitopes (CG10, 17b) in gp120BaL (gp120BaL) | integrity of neutralizing / CD4BS epitopes (2G12, b12, b6, m14) in peptide-captured gp120BaL (gp120BaL) | binding to gp120BaL (gp120BaL; phage-displayed peptide) | fold increase in binding / affinity for gp120 versus m1 (gp120; compared with m1) [fold] | pKd (gp120; read-out: KD for gp120 binding) | pKd (gp120; read-out: apparent affinity constant for gp120 binding) | binding to gp120JR-FL (gp120JR-FL) | binding of CD4 to peptide/gp120 complex (gp120451) | binding to gp120451 (gp120451; phage-displayed peptide) | binding of peptide to CD4 alone (CD4) |
| --- | --- | --- | --- | --- | --- | --- | --- | --- | --- | --- | --- | --- | --- |
| CDRRDLPDWAIRAC [m2] | without interfering with b12, b6 or m14 binding | induced CG10 binding | is able to bind CD4 itself | induces CD4i epitopes; also recorded: induces both the CG10 and 17b epitopes | maintains the integrity of the CD4BS epitopes; also recorded: intact and available | binds m2 peptide; also recorded: binds also to gp120BaL | 10 | 8.19 | 8.19 |  |  |  |  |
| CDRRDLPQWAKREC [m1] | bind the m1/gp120 complex very well; also recorded: without interfering with b12, b6 or m14 binding | elicit the CG10 epitope; also recorded: CG10 bound the complex; also recorded: induces the CG10 epitope; also recorded: induced CG10 binding |  |  |  |  |  |  |  | not to gp120JR-FL | CD4 itself bound the m1/gp120 complex | specifically bind gp120; also recorded: binds gp120; also recorded: binds to gp120451 | no affinity for CD4 alone; also recorded: CD4 does not bind m1 |

From patent publication US8715684B2, “Peptides inducing a CD4i conformation in HIV gp120 while retaining vacant CD4 binding site” (priority 2007, dated 2014)
